In US4410626A, “Process for the production of 7α-methoxycephalosporin derivatives” (Yamanouchi Pharmaceutical Co. Ltd., priority 1978, dated 1983):
≈ marks a conversion by molar mass, not a printed value.

Experiments:
[1] = system: Proteus mirabilis; experiment: Antibacterial activity, plate disc method (diameter of inhibitory circle), Proteus mirabilis; format: cell-based; design: unit not given here; settings: pH 8.0, plate disc method
From the text: (§1) 3. The antibacterial activities to Proteus mirabilis and Salmonella gallinarum are as follows:
(§2) Peptone 1%, yeast extract 0.1%, agaragar 1%, pH 8.0, plate disc method,
(§3) the numerical values are the diameters of inhibitory circles.

[2] = system: Salmonella gallinarum; experiment: Antibacterial activity, plate disc method (diameter of inhibitory circle), Salmonella gallinarum; format: cell-based; settings: pH 8.0, plate disc method
From the text: as §1, §2, §3

[3] = system: Bacillus subtilis ATCC 6633; experiment: Minimum inhibitory concentration, Bacillus subtilis; format: cell-based; settings: ATCC6633
[4] = system: Shigella boydii IID 627; experiment: Minimum inhibitory concentration, Shigella boydii; format: cell-based; settings: IID627
[5] = Solubility / hygroscopicity of the Na salt (physicochemical properties); settings: for Solubility in methanol, ethanol, ethyl acetate, butyl acetate and other organic solvents: (n-)butanol (not named for compound C)
[6] = system: Staphylococcus aureus ATCC 6538F; experiment: Minimum inhibitory concentration, Staphylococcus aureus; format: cell-based; settings: ATCC6538F
[7] = system: Pseudomonas aeruginosa NCTC 10490; experiment: Minimum inhibitory concentration, Pseudomonas aeruginosa; format: cell-based; settings: NCTC10490
[8] = system: Salmonella typhi H901W; experiment: Minimum inhibitory concentration, Salmonella typhi; format: cell-based; settings: Salmonella enterica, read-out: Minimum inhibitory concentration
[9] = system: Escherichia coli NIHJ; experiment: Minimum inhibitory concentration, Escherichia coli; format: cell-based
[10] = system: Proteus mirabilis IMFOM9; experiment: Minimum inhibitory concentration, Proteus mirabilis; format: cell-based
[11] = system: Klebsiella pnuemoniae ATCC 10031; experiment: Minimum inhibitory concentration, Klebsiella pnuemoniae; format: cell-based; settings: ATCC10031
[12] = system: Proteus vulgaris OXK US; experiment: Minimum inhibitory concentration, Proteus vulgaris; format: cell-based
[13] = system: Salmonella enteritidis 1891; experiment: Minimum inhibitory concentration, Salmonella enteritidis; format: cell-based; settings: Salmonella enterica

Row | Compound | diameter of inhibitory circle ([1]; 500 γ/ml) | diameter of inhibitory circle ([2]; 500 γ/ml) | MIC [3] | MIC [4] | Solubility in methanol, ethanol, ethyl acetate, butyl acetate and other organic solvents ([5]; ethyl acetate, butyl acetate) | Solubility in water [5] | MIC [6] | MIC [7] | diameter of inhibitory circle ([1]; 100 γ/ml) | MIC [8] | MIC [9] | MIC [10] | MIC [11] | MIC [12] | MIC [13] | diameter of inhibitory circle ([2]; 100 γ/ml) | Hygroscopicity [5] | Solubility in ethyl acetate, butyl acetate, n-butanol and other organic solvents ([5]; ethyl acetate, butyl acetate, n-butanol and other organic solvents) | Solubility in methanol and ethanol ([5]; methanol and ethanol)
1 | CO[C@@]1(NC(=O)CCCC(=O)O)C(=O)N2C(C(=O)O)=C(CSc3nnnn3C)CS[C@@H]21 [Y-G19Z-GG, 7(4-carboxybutyramido)-7-methoxy-3-(1-methyl-1H-tetrazol-5-yl)thio-methylΔ^3cephem-4-carboxylic acid, reference compound] | 19.0 | 16.0 |  |  |  |  |  |  |  |  |  |  |  |  |  |  |  |  | 
2 | CO[C@@]1(NC(=O)CCC[C@@H](N)C(=O)O)C(=O)N2C(C(=O)O)=C(COC(=O)/C=C/c3ccc(OS(=O)(=O)O)cc3)CS[C@@H]21 [Compound (A), 7β-(D-5-Amino-5-carboxyvaleramido)-7α-methoxy-3-(p-sulfooxycinnamoyloxymethyl)-Δ^3-cephem-4-carboxylic acid] | 28.7 | 21.5 | 12.5 µg/mL (≈ 19.9 µM) | 6.25 µg/mL (≈ 9.93 µM) | scarcely | Easily soluble | 100 µg/mL (≈ 159 µM) | > 100 µg/mL | 22.3 | 3.13 µg/mL (≈ 4.97 µM) | 6.25 µg/mL (≈ 9.93 µM) | 0.78 µg/mL (≈ 1.24 µM) | 25 µg/mL (≈ 39.7 µM) | 0.39 µg/mL (≈ 0.619 µM) | 6.25 µg/mL (≈ 9.93 µM) | 17.0 |  |  | 
3 | CO[C@@]1(NC(=O)CCCC(=O)O)C(=O)N2C(C(=O)O)=C(COC(=O)/C=C/c3ccc(O)cc3)CS[C@@H]21 [Compound (D), 7β-(4-carboxybutyramido)-3-(p-hydroxycinnamoyloxymethyl)-7α-methoxy-Δ^3-cephem-4-carboxylic acid] | 27.7 | 16.2 | 100 µg/mL (≈ 192 µM) | 12.5 µg/mL (≈ 24 µM) |  | Easily soluble | 50 µg/mL (≈ 96.1 µM) | > 100 µg/mL | 18.0 | 25 µg/mL (≈ 48 µM) | 6.25 µg/mL (≈ 12 µM) | 6.25 µg/mL (≈ 12 µM) | 12.5 µg/mL (≈ 24 µM) | 3.13 µg/mL (≈ 6.01 µM) | 25 µg/mL (≈ 48 µM) | 11.5 | Very hygroscopic | scarcely soluble | slightly soluble
4 | CO[C@@]1(NC(=O)CCC[C@@H](N)C(=O)O)C(=O)N2C(C(=O)O)=C(COC(=O)/C=C/c3ccc(O)cc3)CS[C@@H]21 [Compound (C), 7β-(D-5-amino-5-carboxyvaleramido)-3-(p-hydroxycinnamoyloxymethyl)-7α-methoxy-Δ^3-cephem-4-carboxylic acid] | 27.8 | 20.0 | 3.13 µg/mL (≈ 5.7 µM) | 6.25 µg/mL (≈ 11.4 µM) | scarcely soluble | Easily soluble | 50 µg/mL (≈ 91 µM) | > 100 µg/mL | 22.0 | 12.5 µg/mL (≈ 22.7 µM) | 3.13 µg/mL (≈ 5.7 µM) | 0.78 µg/mL (≈ 1.42 µM) | 3.13 µg/mL (≈ 5.7 µM) | 0.78 µg/mL (≈ 1.42 µM) | 1.56 µg/mL (≈ 2.84 µM) | 15.1 |  |  | 
5 | CO[C@@]1(NC(=O)CCCC(=O)O)C(=O)N2C(C(=O)O)=C(COC(=O)/C=C/c3ccc(OS(=O)(=O)O)cc3)CS[C@@H]21 [Compound (B), 7β-(4-Carboxybutyramido)-7α-methoxy-3-(p-sulfooxycinnamoyloxymethyl)-Δ^3-cephem-4-carboxylic acid] | 27.2 | 18.3 | 100 µg/mL (≈ 167 µM) | 25 µg/mL (≈ 41.6 µM) | scarcely soluble | Easily soluble | 100 µg/mL (≈ 167 µM) | > 100 µg/mL | 17.6 | 50 µg/mL (≈ 83.3 µM) | 6.25 µg/mL (≈ 10.4 µM) | 12.5 µg/mL (≈ 20.8 µM) | 25 µg/mL (≈ 41.6 µM) | 6.25 µg/mL (≈ 10.4 µM) | 50 µg/mL (≈ 83.3 µM) | 14.2 |  |  | 
6 | COC(=Cc1ccc(O)cc1)C(=O)OCC1=C(C(=O)O)N2C(=O)[C@](NC(=O)CCC[C@@H](N)C(=O)O)(OC)[C@H]2SC1 [Comp. b, reference compound] |  |  | 6.25 µg/mL (≈ 10.8 µM) | 50 µg/mL (≈ 86.3 µM) |  |  | 100 µg/mL (≈ 173 µM) | > 100 µg/mL |  | 50 µg/mL (≈ 86.3 µM) | 12.5 µg/mL (≈ 21.6 µM) | 6.25 µg/mL (≈ 10.8 µM) | 25 µg/mL (≈ 43.1 µM) | 6.25 µg/mL (≈ 10.8 µM) | 12.5 µg/mL (≈ 21.6 µM) |  |  |  | 
7 | COC(=Cc1ccc(OS(=O)(=O)O)cc1)C(=O)OCC1=C(C(=O)O)N2C(=O)[C@](NC(=O)CCC[C@@H](N)C(=O)O)(OC)[C@H]2SC1 [Comp. a, reference compound] |  |  | 50 µg/mL (≈ 75.8 µM) | 25 µg/mL (≈ 37.9 µM) |  |  | > 100 µg/mL | > 100 µg/mL |  | 25 µg/mL (≈ 37.9 µM) | 25 µg/mL (≈ 37.9 µM) | 6.25 µg/mL (≈ 9.47 µM) | 50 µg/mL (≈ 75.8 µM) | 1.56 µg/mL (≈ 2.36 µM) | 25 µg/mL (≈ 37.9 µM) |  |  |  | 
8 | CO[C@@]1(NC(=O)CCCC(N)C(=O)O)C(=O)N2C(C(=O)O)=C(CSc3nnnn3C)CS[C@@H]21 (some centres unmarked) [Y-G19Z-G, 7(5-amino-5-carboxyvaleramido)-7-methoxy-3-(1-methyl-1H-tetrazol-5-yl)thimethyl-Δ^3cephem-4-carboxylic acid, reference compound] | 27.0 | 21.5 |  |  |  |  |  |  | 21.6 |  |  |  |  |  |  | 18.5 |  |  | 
